Results from patent US20180153995A1, “USE OF ANTIMICROBIAL POLYMERS FOR RE-SENSITIZATION OF MICROORGANISMS UPON EMERGENCE OF RESISTANCE TO ANTI-MICROBIAL AGENTS” (Technion Research & Development Foundation Limited, priority 2008, published 2018).
Like-named read-outs stand apart in the source and are kept apart here.

What was measured:
S. aureus 15819 = test: Antibiotic MIC by microdilution with or without sub-MIC polymer; type: cell-based, Staphylococcus aureus; details: S. aureus 15819
[1] = system: E. coli K-12 resistant wild type; type: cell-based, Escherichia coli; details: E. coli AG100 (w.t.)
E. coli 16329 = type: cell-based, Escherichia coli; details: E. coli U-16329
In short: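 Bacterial suspensions (100 μl) were added to 100 μl of culture medium carrying 2-fold serially diluted antibiotic together with a fraction of the polymer's MIC, or to plain medium as control. Plates were incubated 24 hours at 37° C, and proliferation was read at 620 nm against calibration standards. Starting inoculum was 10^5 bacteria per ml.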

MRSA 15903 = test: microbe, parasite or virus in culture; type: cell-based, Staphylococcus aureus
In short: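 Values are FIC indexes, summing each agent's MIC in combination divided by its MIC alone, for MRSA 15903. Interpretation: <0.5 clear re-sensitization, 0.5 to 4 marginal or none, >4 antagonistic.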

E. coli 16327 = test: microbe, parasite or virus in culture
[2] = system: E. coli K-12 efflux knockout mutant; type: cell-based, Escherichia coli; details: E. coli AG100A (efflux−)
In short: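 Broth microdilution, inocula 10^5 bacteria/ml, 24 h at 37 °C. Growth read as OD620 against calibration standards.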

S. aureus 43300 = test: Antibiotic MIC by microdilution with or without sub-MIC polymer; type: cell-based, Staphylococcus aureus
E. coli 14384 = test: as above; type: cell-based, Escherichia coli; details: E. coli 14384
In short: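 OD 620 nm after 24 h at 37° C gave the inhibition of proliferation. Bacteria at 10^5 per ml were exposed to 2-fold serial antibiotic dilutions, with or without […].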

S. maltophila 748 = test: as above; type: cell-based, Stenotrophomonas maltophila
S. aureus 15877 = test: as above; type: cell-based, Staphylococcus aureus
Experimental: MICs were determined by microdilution susceptibility testing in 96-well plates (by Nunc) using inocula of 10^5 bacteria per ml. Cell populations were evaluated by optical density measurements at 620 nm and were calibrated against a set of standards. Hundred (100) μl of a bacterial suspension were added to 100 μl of culture medium (control) or to 100 μl of culture medium containing various polymer concentrations in 2-fold serial dilutions. Inhibition of proliferation was determined by optical density measurements at 620 nm after an incubation period of 24 hours at 37° C.
MICs were determined by microdilution susceptibility testing in 96-well plates (Nunc) using inocula of 10^5 bacteria per ml. One hundred (100) μl of a bacterial suspension were added to 100 μl of culture medium (control) or to 100 μl of culture medium containing various antibiotic and C12(5-ene)KKNC12KNH2 (SEQ ID NO: 2) concentrations in 2-fold serial dilutions. Inhibition of proliferation was determined by optical density measurements at 620 nm after an incubation period of 24 hours at 37° C.

[3] = +¼ MIC (1.6 μM) C12(5-ene)KKNC12KNH2
[4] = +¼ MIC (1.6 μM) C12K(KNC12K)3NH2
[5] = +⅓ MIC (2.1 μM) C12K(KNC12K)3NH2
[6] = polymer at ¼ of its MIC (Table 16)
[7] = polymer at ½ of its MIC (Table 16)
[8] = polymer at ⅓ of its MIC (Table 16)

CN(C)[C@@H]1C(O)=C(C(N)=O)C(=O)[C@@]2(O)C(O)=C3C(=O)c4c(O)cccc4[C@@](C)(O)[C@H]3C[C@@H]12 [Tetracycline, tetracycline]
0.06 µg/mL: MIC (MRSA 15903; S. aureus CI-15903, +polymer (½ MIC) C12(5-ene)KKNC12KNH2)
0.004 µg/mL: MIC (MRSA 15903; MRSA 15903, +½ polymer MIC (3.1 μM) NC12(KNC12K)2NH2)
0.1 µg/mL: MIC (MRSA 15903; S. aureus CI-15903, +polymer (⅓ MIC) C12(5-ene)KKNC12KNH2)
0.25 to 0.5 µg/mL: Antibiotic MIC in presence of C12K(NC8K)7NH2 (SEQ ID NO: 4), +½ MIC [1, 7] | Antibiotic MIC in presence of C12K(NC8K)7NH2 (SEQ ID NO: 4), +½ MIC [2, 7]
1 µg/mL: MIC, ¼ + MIC OAK (MRSA 15903; MRSA 15903, with C12K(KNC10K)3NH2 (SEQ ID NO: 10) at ¼ of its MIC) | MIC, ⅓ + MIC OAK (MRSA 15903; MRSA 15903, with C12K(KNC10K)3NH2 (SEQ ID NO: 10) at ⅓ of its MIC) | MIC (MRSA 15903; Staphylococcus aureus, MRSA, 24 h, MRSA 15903, antibiotic alone (Table 22), read-out: MIC, Alone) | Antibiotic MIC (S. aureus 15877; [3]) | Antibiotic MIC (S. aureus 15877; +⅓ MIC (2.1 μM) C12(5-ene)KKNC12KNH2) | Antibiotic MIC (S. aureus 15877; no polymer (None), Table 8)
0.5 to 1 µg/mL: Antibiotic MIC (S. aureus 15877; +½ MIC (3.12 μM) C12(5-ene)KKNC12KNH2)
1 to 2 µg/mL: Antibiotic MIC in presence of C12K(NC8K)7NH2 (SEQ ID NO: 4), +¼ MIC [1, 6]
32 to 64 µg/mL: Antibiotic MIC in presence of C12K(NC8K)7NH2 (SEQ ID NO: 4), +½ MIC (E. coli 16329; polymer at ½ of its MIC) | Antibiotic MIC (E. coli 14384; +½ MIC C12K(NC8K)5NH2)
0.5 µg/mL: Antibiotic MIC (S. aureus 15819; [4]) | Antibiotic MIC (S. aureus 15819; +¼ MIC (1.6 μM) C12KKNC12KNH2) | Antibiotic MIC (S. aureus 15819; +½ MIC (3.12 μM) C12KKNC12KNH2) | Antibiotic MIC (S. aureus 15819; +⅓ MIC (2.1 μM) C12KKNC12KNH2) | Antibiotic MIC (S. aureus 15819; no polymer (None), Table 11) | Antibiotic MIC (S. aureus 15819; no polymer (None), Table 13) | Antibiotic MIC in presence of C12K(NC8K)7NH2 (SEQ ID NO: 4), +⅓ MIC [1, 8] | MIC (MRSA 15903; MRSA 15903, +¼ polymer MIC (1.6 μM) NC12(KNC12K)2NH2) | MIC (MRSA 15903; S. aureus CI-15903, +polymer (¼ MIC) C12(5-ene)KKNC12KNH2) | MIC (MRSA 15903; Staphylococcus aureus, MRSA, 24 h, MRSA 15903, antibiotic alone, read-out: MIC) | MIC (MRSA 15903; Staphylococcus aureus, MRSA, 24 h, S. aureus CI-15903, alone, read-out: MIC) | Antibiotic MIC, None ([2]; antibiotic alone (Table 16)) | Antibiotic MIC, None ([2]; antibiotic alone (Table 17)) | Antibiotic MIC in presence of C12K(NC8K)7NH2 (SEQ ID NO: 4), +¼ MIC [2, 6] | Antibiotic MIC in presence of C12K(NC8K)7NH2 (SEQ ID NO: 4), +⅓ MIC [2, 8] | Antibiotic MIC (S. aureus 43300; +¼ MIC (1.6 μM) C12K(KNC12K)2NH2) | Antibiotic MIC (S. aureus 43300; +¼ MIC (1.6 μM) C12KKNC12KNH2) | Antibiotic MIC (S. aureus 43300; +½ MIC (3.12 μM) C12K(KNC12K)2NH2) | Antibiotic MIC (S. aureus 43300; +½ MIC (3.12 μM) C12KKNC12KNH2) | Antibiotic MIC (S. aureus 43300; +⅓ MIC (2.1 μM) C12K(KNC12K)2NH2) | Antibiotic MIC (S. aureus 43300; +⅓ MIC (2.1 μM) C12KKNC12KNH2)
0.25 µg/mL: Antibiotic MIC (S. aureus 15819; [3]) | Antibiotic MIC (S. aureus 15819; [5]) | Antibiotic MIC (S. aureus 15819; no polymer (None), Table 8) | MIC (MRSA 15903; MRSA 15903, +⅓ polymer MIC (2.1 μM) NC12(KNC12K)2NH2) | MIC, ½ + MIC OAK (MRSA 15903; MRSA 15903, with C12K(KNC10K)3NH2 (SEQ ID NO: 10) at ½ of its MIC) | Antibiotic MIC (S. aureus 43300; +¼ MIC (1.6 μM) C16(9-ene)KKNC12KNH2)
32 µg/mL: Antibiotic MIC (E. coli 16327; E. coli 16327, +½ MIC (3.12 μM) C14(9-ene)KKNC12KNH2) | Antibiotic MIC in presence of C12K(NC8K)7NH2 (SEQ ID NO: 4), +½ MIC (E. coli 16327; E. coli U-16327, polymer at ½ of its MIC) | Antibiotic MIC (E. coli 14384; +½ MIC (3.12 μM) C14(9-ene)KKNC12KNH2) | Antibiotic MIC (S. maltophila 748; +½ MIC (3.12 μM) C12K(KNC12K)3NH2)
64 µg/mL: Antibiotic MIC (E. coli 16329; +½ MIC C12K(NC8K)5NH2) | MIC, ½ + MIC OAK (E. coli 16327; E. coli U16327, with C12K(KNC10K)3NH2 (SEQ ID NO: 10) at ½ of its MIC) | Antibiotic MIC in presence of C12K(NC8K)7NH2 (SEQ ID NO: 4), +½ MIC (E. coli 14384; polymer at ½ of its MIC) | Antibiotic MIC (S. maltophila 748; [4]) | Antibiotic MIC (S. maltophila 748; [5])
